Assay results as given in the supplement of paper PMC10307832.

Key:
Assay in all cases: relative viability (nuclei count vs DMSO), 5 days (fraction); higher = more cells survive
[1] = compound: C1=CC2=C(C=C(C(=C2N=C1)O)N=NC3=CC4=C(C=C3)C=C(C=C4)S(=O)(=O)O)S(=O)(=O)O + CC(C)C[C@H](NC(=O)[C@H](Cc1ccccc1)NC(=O)c1cnccn1)B(O)O [Bortezomib] (partner 0.002 µM)
Method in brief: (§1)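 Relative viability is defined as nuclei in treated wells over nuclei in vehicle wells. Duplicate plates were run and medians reported. Lung cancer cell lines in 1536-well plates were dosed by pin tool one day after seeding, with one drug or with a fixed anchor-drug dose plus five library-drug doses (not always all listed) in √10 steps, and nuclei were counted after 5 days.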

[2] = compound: C1=CC2=C(C=C(C(=C2N=C1)O)N=NC3=CC4=C(C=C3)C=C(C=C4)S(=O)(=O)O)S(=O)(=O)O + CC1(C)CCC(c2ccc(Cl)cc2)=C(CN2CCN(c3ccc(C(=O)NS(=O)(=O)c4ccc(N[C@H](CCN5CCOCC5)CSc5ccccc5)c(S(=O)(=O)C(F)(F)F)c4)cc3)CC2)C1 [Navitoclax] (partner 0.5 µM)
Method in brief: as §1

[3] = compound: C1=CC2=C(C=C(C(=C2N=C1)O)N=NC3=CC4=C(C=C3)C=C(C=C4)S(=O)(=O)O)S(=O)(=O)O + Nc1nc2[nH]cc(CCc3ccc(C(=O)N[C@@H](CCC(=O)O)C(=O)O)cc3)c2c(=O)[nH]1 [Pemetrexed] (partner 0.2 µM)
Method in brief: as §1

AT-7519 + Phenformin = compound: O=C(NC1CCNCC1)c1n[nH]cc1NC(=O)c1c(Cl)cccc1Cl [AT-7519] + N=C(N)NC(=N)NCCc1ccccc1 [Phenformin] (partner 250 µM)
Method in brief: as §1

Cell Line	relative viability ([1]; first compound 0.08 µM)	relative viability ([1]; first compound 0.253 µM)	relative viability ([1]; first compound 0.8 µM)	relative viability ([1]; first compound 2.53 µM)	relative viability ([1]; first compound 8 µM)	relative viability ([2]; first compound 0.08 µM)	relative viability ([2]; first compound 0.253 µM)	relative viability ([2]; first compound 0.8 µM)	relative viability ([2]; first compound 2.53 µM)	relative viability ([2]; first compound 8 µM)	relative viability ([3]; first compound 0.08 µM)	relative viability ([3]; first compound 0.253 µM)	relative viability ([3]; first compound 0.8 µM)	relative viability ([3]; first compound 2.53 µM)	relative viability ([3]; first compound 8 µM)	relative viability (AT-7519 + Phenformin; first compound 0.01 µM)	relative viability (AT-7519 + Phenformin; first compound 0.03162 µM)	relative viability (AT-7519 + Phenformin; first compound 0.3162 µM)	relative viability (AT-7519 + Phenformin; first compound 1 µM)
NCI-H1734	1.07	0.885	0.863	1.09	0.978	1.13	0.86	0.784	0.877	0.884	0.387	0.43	0.417	0.421	0.443	0.385	0.342	0.323	0.175
NCI-H1755	1.08	0.962	0.934	0.95	0.958	1.06	0.963	0.977	0.993	0.726	0.526	0.418	0.459	0.489	0.425	0.638	0.633	0.608	0.546
NCI-H1792	1.09	0.931	0.886	0.976	0.908	0.712	0.578	0.598	0.623	0.632	1.02	0.764	0.821	0.821	0.897	0.208	0.22	0.315	0.163
NCI-H1915	1.02	0.957	0.92	0.892	0.935	0.818	0.764	0.835	0.765	0.768	0.523	0.464	0.473	0.461	0.446	0.365	0.384	0.345	0.376
NCI-H1975	0.389	0.385	0.377	0.327	0.42	1.3	1.13	1.07	1.26	0.979	0.315	0.297	0.302	0.29	0.303	0.382	0.408	0.274	0.155
NCI-H1993	1.08	1.07	1.28	1.3	0.977	1.05	0.913	1.05	0.893	1.01	0.511	0.539	0.6	0.589	0.617	0.544	0.574	0.528	0.439
NCI-H2009	0.909	0.921	0.965	0.968	0.916	1.19	1.1	1.08	1.14	1.18	1.07	1.05	0.89	1.04	0.988	0.521	0.451	0.472	0.276
NCI-H2023	0.945	0.945	1.01	1.15	0.978	1.03	1.01	0.965	0.984	0.973	0.205	0.223	0.265	0.256	0.14	0.389	0.435	0.321	0.0704
NCI-H2085	1.23	1.05	1.01	1.11	0.953	1.2	1.14	0.98	1.12	1.18	0.923	0.864	0.846	0.903	0.92	0.744	0.7	0.759	0.53
NCI-H2087	0.888	0.902	0.856	0.669	0.904	0.926	0.878	0.868	0.889	0.948	0.643	0.599	0.567	0.602	0.7	0.472	0.442	0.479	0.172
NCI-H2126	1.14	1.12	1.11	1.08	1.11	0.882	0.792	0.845	0.935	0.832	0.671	0.641	0.689	0.723	0.75	0.552	0.494	0.491	0.33
NCI-H2228	1.17	1.01	0.917	1.01	0.96	1.09	0.801	0.953	0.577	0.874	0.305	0.312	0.328	0.334	0.324	0.298	0.305	0.193	0.165
NCI-H2347	1.23	0.962	0.982	0.98	0.955	0.898	0.738	0.809	0.917	0.391	0.44	0.474	0.444	0.403	0.343	0.281	0.388	0.582	0.185
NCI-H2405	1.04	0.952	0.979	0.935	0.4	0.86	0.746	0.959	0.993	0.788	1.1	1.08	0.976	1.11	0.982	0.375	0.39	0.35	0.32
NCI-H3122	0.975	0.899	1.02	0.996	0.987	0.98	1.04	0.996	1.03	1.04	0.194	0.201	0.202	0.189	0.182	0.405	0.37	0.325	0.13
PC-3 [JPC-3]	0.908	0.849	0.768	0.794	0.851	0.888	0.748	0.854	0.722	0.725	1.07	1.03	1.04	1.16	0.999	0.471	0.474	0.45	0.484
